Experimental findings from US6835731B2, “Chemokine receptor binding heterocyclic compounds” (AnorMED, Inc., priority 2000, dated 2004) are described below.

Structures are written as SMILES.

What all share (assay type): cell-based
One assay has as its system HIV-1 BaL (CCR5 using). The assay can be described thus: Inhibition of HIV-1 (BaL) replication in PBMC's. The settings on record: Human immunodeficiency virus 1, BAL, PHA-stimulated PBMC's, viral p24 antigen expression. Here is the method: Assay for Inhibition of HIV-1 (BaL) Replication in PBMC's. When compounds of the current invention are tested for inhibition of HIV-1 BaL (CCR5 using) replication in PHA-stimulated PBMC's (peripheral blood mononuclear cells) using viral p24 antigen expression (De […] et al. Antimicrob. Agents Chemother. 1994, 38, 668-674; Schols et al. J. Exp. Med., 1997, 186, 1383-1388), all show inhibition.

Assay [1] deals with HIV-1 NL4.3 (or IIIB, CXCR4 using). The assay can be described thus: Inhibition of HIV-1 (NL4.3) replication in MT-4 cells. Particulars: Human immunodeficiency virus 1, IIIB, MT4, 120 h, MTT viability after 5 days. Here is the method:
Assay for Inhibition of HIV-1 (NL4.3) Replication in MT-4 Cells. Inhibition of HIV-1 NL4.3 (or IIIB, CXCR4 using) replication assays were performed as previously described (Bridger et al. J. Med. Chem. 1999, 42, 3971-3981; De […] et al. Proc. Natl. Acad. Sci, 1992, 89, 5286-5290; De […] et al. Antimicrob. Agents Chemother. 1994, 38, 668-674; Bridger et al. J. Med. Chem. 1995, 38, 366-378; Schols et al. J. Exp. Med., 1997, 186, 1383-1388). Anti-HIV activity and cytotoxicity measurements were carried out in parallel. They were based on the viability of MT-4 cells that had been infected with HIV in the presence of various concentrations of the test compounds. After the MT-4 cells were allowed to proliferate for 5 days, the number of viable cells was quantified by a tetrazolium-based colorimetric 3-(4,5-dimethylthiazol-2-yl)-2,5-diphenyltetrazolium bromide (MTT) procedure in 96-well microtrays. In all of these assays, viral input (viral multiplicity of infection, MOI) was 0.01, or 100 times the 50% cell culture infective dose (CCID50). The EC50 was defined as the concentration required to protect 50% of the virus-infected cells against viral cytopathicity. When compounds of the current invention are tested for inhibition of HIV-1 NL4.3 or IIIB replication in MT-4 cells, all show inhibition.

Assay [2] has as its system SDF-1α induced Ca flux in SUP-T1 cells. In words: Inhibition of chemokine (SDF-1α) induced Ca flux measured on a FLIPR. The settings on record: Homo sapiens, at 20 μg/mL. Here is the method: Inhibition of Chemokine Induced Ca Flux Measured on a FLIPR (Molecular Devices) Loading dye: Fluo-3, AM (Molecular Probes F-1241) is dissolved in anhydrous DMSO and stored frozen in aliquots. To increase the solubility of the dye in the loading medium, 10% (w/v) pluronic acid (Molecular Probes F-127) is added to the Fluo-3 stock solution immediately before use. buffer+0.2% BSA, pH 7.4. HBSS 10× [(w/o phenol red and sodium bicarbonate (Gibco 14 065-049)]; Hepes buffer 1M (Gibco 15 630-056), BSA (Sigma A3675). The flux buffer is vacuum-filtered and stored refrigerated for a maximum of 5 days. Before use in the experiment, the buffer is warmed at 37° C. in a waterbath. The test compounds were diluted in flux buffer at the desired concentration and added to 4 wells of a black microplate (4 parallel measurements per compound). The following control wells were used: 100% response control (no inhibition), flux buffer was added; 100% inhibition control: chemokine was added at 5-times the concentration required to induce a Ca flux. The chemokines are diluted in flux buffer to concentrations that are 4-fold higher than the desired concentrations required for stimulation of the cells (i.e. 2.5 nM for SDF-1α and 0.6 nM for RANTES). The chemokines were added to untreated 96-well Sero well compound plates (International Medical, Sterilin code 611F96). In the negative control well's (baseline monitoring), flux buffer is added instead of chemokine. As a positive control to check for dye loading efficiency, 20 μM digitonin (final concentration) was also included. The agonist plate was incubated in the FLIPR (37° C.) for 15-30 min. Cell Loading Protocol for Measuring Inhibition of SDF-1α Induced Ca Flux in SUP-T1 Cells. SUP-T1 cells were centrifuged at room temperature (RT) and re-suspended in loading medium (RPMI-1640 containing 2% FBS and 4 μM Fluo-3, AM). The cells were incubate at room temperature for 45 min. then washed twice in flux buffer then incubated in flux buffer at room temperature for 10 min. The cells were centrifuged and re-suspended in flux buffer at a density of 3×10^6 cells per mL. A 100 μL aliquot of the cell suspension (3×10^5 cells) was added to each well of a black microplate (Costar 3603), which already contains 50 μL of a solution of the test compound (at concentrations that are 3-fold higher than the desired final compound concentrations). The microplate is then gently centrifuged at room temperature. Homogeneous spreading of the cells on the bottom of the microplate wells was then confirmed with a microscope and the microplate was incubated in the FLIPR (37° C.) for 10 min. prior to testing. The FLIPR settings (camera exposure time and laser power) are adjusted to obtain initial fluorescence values between 8,000 and 10,000 units. After monitoring a 20 second-baseline, the agonist (chemokine) (50 μL) is added by automatic pipettor with black pipette tips. Fluorescence is measured simultaneously in all wells of the microplate every 2 seconds (first 2 min) and thereafter every 6 seconds (additional 2 min). The average ca-flux measured in each set of 4 identical wells (one test compound) was calculated by the FLIPR software. The compounds of the current invention are tested for inhibition of SDF-1α induced Ca flux in SUP-T1 cells using the method described above.

What is called EC50 is the concentration giving half of the maximal effect. As usually defined, the inhibition is the percentage by which the read-out fell short of the control. The low end stands for a response near the control, the high end for a response far below the control.

Consider `O=C(Nc1ccccn1)c1ccc(CN(Cc2nc3ccccc3[nH]2)C2CCCc3cccnc32)cc1` (centres unmarked) [Example 2, 4-{[(1 H-Benzimidazol-2-ylmethyl)-(5,6,7,8-tetrahydroquinolin-8-yl)amino]-methyl}-N-pyridin-2-yl-benzamide], for which the EC50 (in the assay with HIV-1 BaL (CCR5 using); in assay [1]) was less than 20 µg/mL throughout. The compound further displayed an inhibition at 20 µg/mL in assay [2] greater than 20%.
For the compound `O=C(NCc1ccc(CN(Cc2nc3ccccc3[nH]2)C2CCCc3cccnc32)cc1)c1ccccn1` (centres unmarked) [Example 17, Pyridine-2-carboxylic Acid 4-{[(1 H-benzimidazol-2-ylmethyl)-(5,6,7,8-tetrahydro-quinolin-8-yl)-amino]-methyl}-benzylamide], the EC50 (with HIV-1 BaL (CCR5 using); in assay [1]) was less than 20 µg/mL in each case. Further, the inhibition at 20 µg/mL in assay [2] is greater than 20%.
For `O=S(=O)(NCc1ccccn1)c1ccc(CN(Cc2nc3ccccc3[nH]2)C2CCCc3cccnc32)cc1` (centres unmarked) [Example 11, 4-{[(1 H-Benzimidazol-2-ylmethyl)-(5,6,7,8-tetrahydro-quinolin-8-yl)-amino]-methyl}-N-pyridin-2-ylmethyl-benzenesulfonamide], the EC50 (in the assay with HIV-1 BaL (CCR5 using); in assay [1]) was less than 20 µg/mL each time. The compound also gave an inhibition at 20 µg/mL in assay [2] greater than 20%.
Regarding `O=C(Nc1ccc(CN(Cc2nc3ccccc3[nH]2)C2CCCc3cccnc32)cc1)c1ccccn1` (centres unmarked) [Example 45, pyridine-2-carboxylic acid (4-{[(1 H-benzoimidazol-2-ylmethyl)-(5,6,7,8-tetrahydro-quinolin-8-yl)-amino]-methyl}-phenyl)-amide], the EC50 in assay [1] is less than 20 µg/mL. The inhibition at 20 µg/mL in assay [2] was greater than 20%.
On to `O=C(NCc1ccccn1)c1ccc(CN(Cc2nc3ccccc3[nH]2)C2CCCc3cccnc32)cc1` (centres unmarked) [Example 4, 4-{[(1 H-Benzimidazol-2-ylmethyl)-(5,6,7,8-tetrahydro-quinolin-8-yl)-amino]-methyl}-N-pyridin-2-ylmethyl-benzamide], for which the EC50 (in the assay with HIV-1 BaL (CCR5 using); in assay [1]) was less than 20 µg/mL in each case. In assay [2], the inhibition at 20 µg/mL was greater than 20%.
In the assay with HIV-1 BaL (CCR5 using), `O=C(NCc1ccc(CNC2CCCc3cccnc32)cc1)c1ccccn1` (centres unmarked) [Example 16, Pyridine-2-carboxylic acid 4-[(5,6,7,8-tetrahydro-quinolin-8-ylamino)-methyl]-benzeylamide] registered a 50% effective concentration (EC50) of less than 20 µg/mL.
Consider `O=S(=O)(NCc1ccc(CN(Cc2nc3ccccc3[nH]2)C2CCCc3cccnc32)cc1)c1ccccn1` (centres unmarked) [Example 48, Pyridine-2-sulfonic Acid 4-{[(1 H-benzoimidazol-2-ylmethyl)-(5,6,7,8-tetrahydro-quinolin-8-yl)-amino]-methyl}-benzylamide], for which the EC50 (with HIV-1 BaL (CCR5 using); in assay [1]) was less than 20 µg/mL throughout. In assay [2], this compound displayed an inhibition at 20 µg/mL greater than 20%.
For the compound `O=S(=O)(Nc1ccc(CN(Cc2nc3ccccc3[nH]2)C2CCCc3cccnc32)cc1)c1ccccn1` (centres unmarked) [Example 53, Pyridine-2-sulfonic acid (4-{[(1H-benzoimidazol-2-ylmethyl)-(5,6,7,8-tetrahydro-quinolin-8-yl)-amino]-methyl}-phenyl)-amide], the EC50 (in the assay with HIV-1 BaL (CCR5 using); in assay [1]) was less than 20 µg/mL throughout.
